Paper PMC9570594, “Development of Novel Pyridine-Thiazole Hybrid Molecules as Potential Anticancer Agents” (Molecules, 2022)

Legend:
Experiment in all cases: NCI five-dose SRB assay
Type in all cases: cell-based
SW-629 (Colon Cancer) = conditions: Homo sapiens, 48 h
U251 (CNS Cancer) = conditions: Homo sapiens, U-251, 48 h
SK_MEL-5 (Melanoma) = conditions: Homo sapiens, SK-MEL-5, 48 h
[1] = tested on: NCI/ADR-RES (Ovarian Cancer); conditions: Homo sapiens, 48 h
DU-145 (Prostate Cancer) = conditions: Homo sapiens, 48 h
[2] = tested on: Breast Cancer cell lines (MG_MID); conditions: Homo sapiens, 48 h

## CCOC(=O)c1ccc(NC(=O)CSC(CC(=O)c2sc(Nc3ccccn3)nc2C)c2ccccc2F)cc1 (stereo not drawn) [Compound 4, Ethyl 4-[[2-[1-(2-Fluorophenyl)-3-[4-methyl-2-(2-pyridylamino)thiazol-5-yl]-3-oxopropyl]sulfanylacetyl]amino]benzoate]
SW-629 (Colon Cancer)
  GI50: 75.3 µM
U251 (CNS Cancer)
  GI50: 47.8 µM
SK_MEL-5 (Melanoma)
  GI50: 18.6 µM
[1]
  GI50: 24.1 µM
DU-145 (Prostate Cancer)
  GI50: 67.2 µM
[2]
  GI50: 14.4 µM
